The text below walks through data of patent US10765706B2, “Method of stem cell delivery into the brain during chronic disease using blood brain barrier permeabilizers” (University of South Florida, priority 2015, dated 2020).

Common to all, as to format: in vivo, Sprague-Dawley rats
Assay [1] relates to middle cerebral artery occlusion (MCAO) stroke rats. The assay is described as follows: Motor asymmetry, chronic stroke (treatment 1 month after MCAO), FIG. 1. The conditions noted are these: intra-arterial, hUCBC only 2 million cells, combination 200,000 cells + 1.1 mol/L mannitol. Here is the method:
(§1) Adult Sprague-Dawley rats initially received sham surgery or experimental stroke via the one-hour middle cerebral artery occlusion (MCAO) model, as disclosed in Example 2. At 1 month after the MCAO surgery, stroke animals were randomly assigned to receive human umbilical cord stem cells only (2 million viable cells), mannitol only (1.1 mol/L mannitol at 4° C.), combined human umbilical cord stem cells (200,000 viable cells) and mannitol (1.1 mol/L mannitol at 4° C.), and vehicle (phosphate buffered saline, PBS) only.
(§2) The hUCBC (Saneron CCEL Therapeutics, Inc., Tampa, Fla.) were thawed at 37° C. Cells were washed and centrifuged three times (1000 rpm for 7 minutes). Viability was determined using the trypan blue dye exclusion method and cell concentration was adjusted to 10,000 cells/μl. A minimum of 85% viability post-thaw was required for a sample to be used for transplantation. For hUCBC+BBB, 200,000 hUCB cells were suspended in 10 μl PBS in a 28-gauge Hamilton syringe. For hUCBC only, 2×10^6 cells were suspended in […] PBS. The BBB only treatment was injected as prepared. Treatments were administered by intra-arterial injection into the internal carotid artery where the embolic filament was previously inserted. Infusion rate was 1 μl per minute as determined by using a micro-infusion pump.

The test system is the same in assay [2]. The assay is described as follows: Neurogenesis, chronic stroke, FIG. 7. The conditions noted are these: treatment 1 month after MCAO. The protocol: as §1, §2
For assay [3] the test system is unchanged. The experiment in a line: Histological analysis of brain cell survival, chronic stroke, FIG. 2. As to conditions: treatment 1 month after MCAO.
Procedure: The hUCBC (Saneron CCEL Therapeutics, Inc., Tampa, Fla.) were thawed at 37° C. Cells were washed and centrifuged three times (1000 rpm for 7 minutes). Viability was determined using the trypan blue dye exclusion method and cell concentration was adjusted to 10,000 cells/μl. A minimum of 85% viability post-thaw was required for a sample to be used for transplantation. For hUCBC+BBB, 200,000 hUCB cells were suspended in 10 μl PBS in a 28-gauge Hamilton syringe. For hUCBC only, 2×10^6 cells were suspended in XX μl PBS. The BBB only treatment was injected as prepared. Treatments were administered by intra-arterial injection into the internal carotid artery where the embolic filament was previously inserted. Infusion rate was 1 μl per minute as determined by using a micro-infusion pump.

Take `OC[C@@H](O)[C@@H](O)[C@H](O)[C@H](O)CO` [mannitol]: the motor asymmetry entry in assay [1] is “lowered the motor asymmetry slightly”. For the same compound, the “neurogenesis, increase above sham-operated rats” value in assay [2] is reported as “without concomitant neurogenesis”. The “cell survival (brain damage, peri-infarct area)” value in assay [3] is on record as “significant brain damage”.
